Experimental data from article PMC6582940 (Molecular pharmaceutics, 2018).
Where a name gives a salt, the structure may show the parent alone.

Biological target: ABCB1 (Homo sapiens, UniProt P08183)
Assay: competition of […]IAAP photoaffinity labeling in ABCB1 membranes
Assay type: binding

Chain of ABCB1 (P08183 whole entry): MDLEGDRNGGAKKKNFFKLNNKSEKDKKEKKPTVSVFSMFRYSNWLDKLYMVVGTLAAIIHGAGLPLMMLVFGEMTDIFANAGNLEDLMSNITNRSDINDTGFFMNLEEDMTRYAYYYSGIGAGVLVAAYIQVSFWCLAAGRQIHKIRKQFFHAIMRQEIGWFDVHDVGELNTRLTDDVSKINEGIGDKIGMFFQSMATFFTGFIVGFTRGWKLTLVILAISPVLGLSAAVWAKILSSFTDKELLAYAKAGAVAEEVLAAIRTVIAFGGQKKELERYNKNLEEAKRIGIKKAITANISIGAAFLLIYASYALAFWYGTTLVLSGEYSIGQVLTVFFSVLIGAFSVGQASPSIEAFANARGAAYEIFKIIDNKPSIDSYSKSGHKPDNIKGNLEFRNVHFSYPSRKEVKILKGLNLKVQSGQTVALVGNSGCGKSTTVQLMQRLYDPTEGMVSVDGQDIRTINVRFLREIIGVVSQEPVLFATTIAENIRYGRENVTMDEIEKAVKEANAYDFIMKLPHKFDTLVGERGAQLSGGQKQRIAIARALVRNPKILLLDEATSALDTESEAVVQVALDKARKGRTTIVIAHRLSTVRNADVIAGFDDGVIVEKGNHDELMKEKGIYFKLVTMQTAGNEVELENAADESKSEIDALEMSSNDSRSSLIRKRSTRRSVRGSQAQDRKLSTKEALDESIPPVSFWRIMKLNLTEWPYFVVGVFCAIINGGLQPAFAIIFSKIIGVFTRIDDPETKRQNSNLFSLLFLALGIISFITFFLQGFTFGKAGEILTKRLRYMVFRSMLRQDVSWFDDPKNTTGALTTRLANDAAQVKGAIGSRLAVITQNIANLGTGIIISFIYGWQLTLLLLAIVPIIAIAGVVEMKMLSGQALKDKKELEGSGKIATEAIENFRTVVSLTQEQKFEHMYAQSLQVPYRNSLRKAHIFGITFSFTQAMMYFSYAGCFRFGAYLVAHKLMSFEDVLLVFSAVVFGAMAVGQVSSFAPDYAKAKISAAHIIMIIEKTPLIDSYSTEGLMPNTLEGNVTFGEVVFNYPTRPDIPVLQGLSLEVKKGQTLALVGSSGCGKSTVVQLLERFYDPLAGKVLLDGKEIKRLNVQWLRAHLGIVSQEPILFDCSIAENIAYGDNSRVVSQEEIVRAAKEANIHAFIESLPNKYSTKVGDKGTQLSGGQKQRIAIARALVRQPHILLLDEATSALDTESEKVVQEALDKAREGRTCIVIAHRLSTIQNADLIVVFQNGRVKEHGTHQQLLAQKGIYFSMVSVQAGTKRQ

`COc1ccc(CCC2c3cc(OCc4ccccc4)c(OC)cc3CCN2C)cc1OCc1ccccc1` (racemic) [isoquinoline 2, (±)-7-benzyloxy-1-(3-benzyloxy-4-methoxyphenethyl)-1,2,3,4-tetrahydro-6-methoxy-2-methylisoquinoline oxalate] was tested, and the IC50 was 63 ± 12 nM.
